Experiments:
in vitro [1] = details: human, hepg2 cells
Text: (§1) These studies included analysis of lactic acid production, mtDNA content and determination of changes in morphology (e.g., loss of cristae, matrix dissolution and swelling, and lipid droplet formation) of mitochondrial ultrastructure.

HepG2 cells = assay: in vitro
Text: as §1

in vitro [2] = details: human, bone marrow cfu-gm
in vitro [3] = details: human, bone marrow bfu-e

Cc1cn([C@H]2C[C@H](N=[N+]=[N-])[C@@H](CO)O2)c(=O)[nH]c1=O [ZDV, zidovudine]
activity (in vitro [1]): 239 ± 34%
activity at 336 h (in vitro [1]): 119%
Lipid Droplet Formation (HepG2 cells): negative
increase of lactic acid production compared to vehicle control (HepG2 cells; human): 100%
IC50 (in vitro [2]): 1.8 µM
IC50 (in vitro [3]): 0.7 µM

Source: patent publication EP1296995B1, “3'-PRODRUGS OF 2'-DEOXY-BETA-L-NUCLEOSIDES” (priority 2000, dated 2001)
